Measurements taken from patent publication US6596712B2, “Treatment of carcinomas using squalamine in combination with other anti-cancer agents or modalities” (Genaera Corporation, priority 1996, dated 2003).

Key:
[1] = target: T1, rabbit NHE1 (Oryctolagus cuniculus, UniProt P23791); test: NHE activity, rabbit NHE1; format: cell-based; details: similar tests
T1 construct: expressed in transfected cells

[2] = target: T2, rabbit NHE2 (Oryctolagus cuniculus, UniProt P50482); test: NHE activity, rabbit NHE2; format: cell-based; details: similar tests
T2 construct: expressed in transfected cells
T2 sequence (P50482 whole entry): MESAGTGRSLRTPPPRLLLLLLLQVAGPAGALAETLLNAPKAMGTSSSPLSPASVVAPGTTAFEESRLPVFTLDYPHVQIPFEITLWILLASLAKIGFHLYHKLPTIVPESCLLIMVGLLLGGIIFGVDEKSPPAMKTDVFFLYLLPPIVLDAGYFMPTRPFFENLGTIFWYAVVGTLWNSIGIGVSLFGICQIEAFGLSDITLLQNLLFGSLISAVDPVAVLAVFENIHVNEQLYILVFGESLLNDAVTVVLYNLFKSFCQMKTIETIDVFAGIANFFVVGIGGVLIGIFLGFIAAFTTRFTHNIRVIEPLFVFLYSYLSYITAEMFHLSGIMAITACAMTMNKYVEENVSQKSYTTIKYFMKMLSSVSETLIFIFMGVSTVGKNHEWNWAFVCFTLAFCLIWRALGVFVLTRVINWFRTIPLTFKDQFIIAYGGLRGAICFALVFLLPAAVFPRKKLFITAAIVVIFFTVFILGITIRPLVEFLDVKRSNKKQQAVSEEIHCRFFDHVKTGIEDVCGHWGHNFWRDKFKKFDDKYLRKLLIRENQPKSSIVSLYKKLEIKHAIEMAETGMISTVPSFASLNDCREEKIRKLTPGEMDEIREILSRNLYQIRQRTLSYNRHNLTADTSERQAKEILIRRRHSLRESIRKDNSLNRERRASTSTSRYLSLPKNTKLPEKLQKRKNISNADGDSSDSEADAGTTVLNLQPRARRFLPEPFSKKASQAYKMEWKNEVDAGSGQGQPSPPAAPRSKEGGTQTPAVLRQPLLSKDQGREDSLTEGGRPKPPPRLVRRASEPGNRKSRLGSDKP

[3] = target: T3, rabbit NHE3 with 76 C-terminal amino acids removed (Oryctolagus cuniculus, UniProt P26432); test: Rabbit NHE3 with the 76 C-terminal amino acids removed; format: cell-based
T3 construct: expressed in transfected cells
T3 sequence (P26432 30-756): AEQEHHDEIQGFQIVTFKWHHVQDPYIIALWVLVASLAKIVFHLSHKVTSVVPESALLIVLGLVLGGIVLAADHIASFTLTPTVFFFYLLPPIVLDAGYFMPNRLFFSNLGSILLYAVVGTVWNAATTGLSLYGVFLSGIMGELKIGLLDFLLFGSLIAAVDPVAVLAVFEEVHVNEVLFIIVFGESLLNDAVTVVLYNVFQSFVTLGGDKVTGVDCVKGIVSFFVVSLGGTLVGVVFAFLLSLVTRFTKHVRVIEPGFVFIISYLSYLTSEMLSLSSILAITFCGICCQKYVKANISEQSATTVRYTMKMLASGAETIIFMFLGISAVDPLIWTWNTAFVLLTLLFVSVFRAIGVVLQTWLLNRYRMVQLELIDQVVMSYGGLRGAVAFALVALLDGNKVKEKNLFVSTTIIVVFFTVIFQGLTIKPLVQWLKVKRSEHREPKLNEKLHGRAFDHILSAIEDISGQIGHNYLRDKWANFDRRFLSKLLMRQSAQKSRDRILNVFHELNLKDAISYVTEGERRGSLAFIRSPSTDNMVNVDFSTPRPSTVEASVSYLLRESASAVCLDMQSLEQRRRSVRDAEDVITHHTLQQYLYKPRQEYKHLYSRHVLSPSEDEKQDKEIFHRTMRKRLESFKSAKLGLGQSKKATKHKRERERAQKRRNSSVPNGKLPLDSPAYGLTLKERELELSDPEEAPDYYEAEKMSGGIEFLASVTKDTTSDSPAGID
Source text: This NHE3 inhibiting activity of squalamine has been mapped to the 76 C-terminal amino acids on the NHE3 molecule. […] Thus, the 76 C-terminal amino acids of NHE3 are the site of inhibition by squalamine.

[4] = test system: VEGF-stimulated bovine retinal endothelial cells; test: Growth of VEGF-stimulated endothelial cells; format: cell-based; details: Bos taurus, Endothelial cell, 48 hours, VEGF 20 ng/ml
Experimental: (§1) In conducting this in vitro analysis, the following cell lines were tested: (a) bovine retinal endothelial cells; (b) 9L and C6 rat glioma cells; (c) human H80 glioma cells; and (d) VX2 rabbit carcinoma cells (the same type as the tumors implanted in the rabbit corneal micropocket assay test described above). The endothelial mitogen which was used in this analysis was VEGF at a concentration of 20 ng/ml.
(§2) The cells were allowed to attach overnight to tissue culture plates containing an optimized growth media. Following attachment, the cells were exposed to solvent only or 5 to increasing concentrations of squalamine (0, 10, 20, 30, 60, and 90 μg squalamine/ml). Cell growth was counted daily for three days using a Coulter Counter. A total of 10,000 cells per well were plated and each experimental concentration was tested in quadruplicate. The results were then averaged. The bovine retinal endothelial cells were grown and treated in an identical manner to the other cell lines, except that the growth of these cells was measured after the addition of 20 ng/ml of human recombinant VEGF to the cells prior to the squalamine treatment.
(§3) Percentage endothelial cell growth inhibition (%I) was determined by the following equation: [formula]

[5] = test system: bovine retinal endothelial cells not treated with VEGF; test: Growth of endothelial cells not treated with VEGF; format: cell-based; details: 24 and 48 hours; up to 30 μg/ml
Experimental: as §1
as §2, with “except that the growth of these cells was measured after the addition of 20 ng/ml of human recombinant VEGF to the cells prior to the squalamine treatment.” left out
as §3

[6] = test system: murine Lewis lung adenocarcinoma; test: Lung metastases of subcutaneous Lewis lung carcinoma; format: in vivo, C57BL/6 mice; details: day 20; squalamine 20 mg/kg/day s.c.; cyclophosphamide 125 mg/kg i.p. days 7, 9, 11; cisplatin 10 mg/kg i.p. day 7
Experimental: The murine Lewis lung adenocarcinoma was implanted subcutaneously in the hind-leg of male C57BL/6 mice and allowed to grow for one week. Groups of mice were then left untreated or treated with either squalamine (20 mg/kg/day, s.c.), cyclophosphamide (125 mg/kg, i.p. on days 7, 9 and 11), cisplatin (10 mg/kg, i.p. on day 7), the combination of squalamine and cyclophosphamide, or the combination of squalamine and cisplatin. On day 20, the animals were sacrificed, and the mean number of lung metastases were determined for each group.

[7] = test system: LNCaP cells; test: LNCaP cell growth in vitro ([3H]-thymidine incorporation); format: cell-based, human
Experimental: (§4) The anti-proliferative effect of squalamine was evaluated in tissue culture by both crystal violet staining and [^3H]-thymidine incorporation, on the LNCaP/C4-2 human prostate cancer progression model. Developed by applicants' laboratory, this lineage-derived cell line recapitulates the progression of human neoplastic prostate disease from an androgen-dependent and minimally metastatic condition (LNCaP cells) to an androgen-independent (defined as being able to proliferate in castrate hosts) and highly aggressive state (C4-2 subline).
In vitro experiments were also conducted with the LNCAP cell line in which cell proliferation as judged by [3H]-thymidine uptake was determined. LNCaP cells were maintained as previously described (cf. J. T. Hsieh et al., Cancer Research 53, 2852-2857 (1993)). Cells were exposed to 20 ng/mL vascular endothelial growth factor (VEGF), 20 μg/mL squalamine or a combination of VEGF and squalamine. […] As a consequence, the mechanism underlying the effectiveness of squalamine treatment of the LNCaP tumor in vivo may under certain conditions also involve direct inhibition of tumor cell growth and/or induction of tumor cell death.

[8] = test system: C4-2 cells; test: C4-2 cell growth in vitro ([3H]-thymidine incorporation); format: cell-based, human
Experimental: as §4

[9] = target: T4, NHE1 (Homo sapiens, UniProt P19634); test: NHE1 activity in unstimulated melanoma cells; format: cell-based; design: endogenous in cells
Experimental: The effect of squalamine on NHE activity was measured to determine which isoforms of NHE were affected by squalamine. NHE activity can be measured under various different cellular conditions. Acid loading a cell activates all of the antiporters and permits measurement of NHE. NHE activity also can be measured after growth factor stimulation of the cell. Additionally, the NHE activity can be measured when the cell is in an unstimulated state, because the antiporters, even if unstimulated, continue to function at a slow, but non-zero rate. In each of these cellular conditions, NHE activity usually is measured in the absence of bicarbonate.
NHE3 in particular is relatively resistant to inhibition by the amilorides.
Target sequence in this assay (P19634 whole entry, species assumed, canonical isoform): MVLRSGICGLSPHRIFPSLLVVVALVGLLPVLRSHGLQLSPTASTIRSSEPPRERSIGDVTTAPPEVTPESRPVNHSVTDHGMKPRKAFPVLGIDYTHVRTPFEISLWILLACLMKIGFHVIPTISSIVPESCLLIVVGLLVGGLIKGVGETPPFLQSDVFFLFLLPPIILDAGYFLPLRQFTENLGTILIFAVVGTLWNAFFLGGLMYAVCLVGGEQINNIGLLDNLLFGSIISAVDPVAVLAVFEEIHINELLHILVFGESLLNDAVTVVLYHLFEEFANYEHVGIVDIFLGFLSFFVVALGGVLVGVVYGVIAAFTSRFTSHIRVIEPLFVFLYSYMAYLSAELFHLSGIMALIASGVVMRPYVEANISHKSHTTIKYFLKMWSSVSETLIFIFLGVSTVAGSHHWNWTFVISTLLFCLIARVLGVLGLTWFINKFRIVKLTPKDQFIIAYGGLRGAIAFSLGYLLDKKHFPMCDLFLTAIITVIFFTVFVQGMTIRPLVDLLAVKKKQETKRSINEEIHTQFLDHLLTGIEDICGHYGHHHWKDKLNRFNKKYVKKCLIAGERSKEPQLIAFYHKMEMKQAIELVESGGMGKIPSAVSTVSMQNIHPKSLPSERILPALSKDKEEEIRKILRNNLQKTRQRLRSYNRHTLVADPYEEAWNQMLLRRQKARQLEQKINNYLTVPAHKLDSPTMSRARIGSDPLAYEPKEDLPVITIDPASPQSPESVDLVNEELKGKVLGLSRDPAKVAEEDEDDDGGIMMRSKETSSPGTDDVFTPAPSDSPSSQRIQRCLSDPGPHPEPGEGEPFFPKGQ

[10] = target: T4, NHE1; test: NHE activity in PS 120 fibroblasts transfected with human NHE1; format: cell-based; design: expressed in transfected cells; host or cells: PS 120 NHE-deficient fibroblasts; details: 7 μg/ml squalamine; acid loaded cells
Experimental: The following describes the test used to determine that squalamine inhibits NHE3, but not NHE1 or NHE2. NHE deficient fibroblast cells (PS 120) transfected with an individual human NHE gene were loaded with a pH sensitive dye 2′7′-bis(2-carboxyethyl)-5,6-carboxyfluorescein (BCECF). NHE activity was measured by spectrofluorometric methods using this dye and by amiloride sensitive isotopic ^22Na^+cellular uptake. The cells were acidified by exposure to ammonium chloride in the absence of sodium to eliminate sodium and deactivate the proton pumps. The ammonium chloride was washed out by exposing the cells to tetramethyl ammonium chloride in bicarbonate free medium. […] Sodium then was added back at various concentrations (see the abscissa of FIGS. 5a and 5b) to drive the antiporters (human NHE3 in FIG. 5a and human NHE1 in FIG. 5b). The antiporters were driven at different rates, as evidenced by the cellular pH change rate, depending on the amount of sodium added.
Target sequence in this assay (P19634 whole entry, canonical isoform): as the sequence (P19634 whole entry, species assumed, canonical isoform) above

T1 sequence (P23791 whole entry): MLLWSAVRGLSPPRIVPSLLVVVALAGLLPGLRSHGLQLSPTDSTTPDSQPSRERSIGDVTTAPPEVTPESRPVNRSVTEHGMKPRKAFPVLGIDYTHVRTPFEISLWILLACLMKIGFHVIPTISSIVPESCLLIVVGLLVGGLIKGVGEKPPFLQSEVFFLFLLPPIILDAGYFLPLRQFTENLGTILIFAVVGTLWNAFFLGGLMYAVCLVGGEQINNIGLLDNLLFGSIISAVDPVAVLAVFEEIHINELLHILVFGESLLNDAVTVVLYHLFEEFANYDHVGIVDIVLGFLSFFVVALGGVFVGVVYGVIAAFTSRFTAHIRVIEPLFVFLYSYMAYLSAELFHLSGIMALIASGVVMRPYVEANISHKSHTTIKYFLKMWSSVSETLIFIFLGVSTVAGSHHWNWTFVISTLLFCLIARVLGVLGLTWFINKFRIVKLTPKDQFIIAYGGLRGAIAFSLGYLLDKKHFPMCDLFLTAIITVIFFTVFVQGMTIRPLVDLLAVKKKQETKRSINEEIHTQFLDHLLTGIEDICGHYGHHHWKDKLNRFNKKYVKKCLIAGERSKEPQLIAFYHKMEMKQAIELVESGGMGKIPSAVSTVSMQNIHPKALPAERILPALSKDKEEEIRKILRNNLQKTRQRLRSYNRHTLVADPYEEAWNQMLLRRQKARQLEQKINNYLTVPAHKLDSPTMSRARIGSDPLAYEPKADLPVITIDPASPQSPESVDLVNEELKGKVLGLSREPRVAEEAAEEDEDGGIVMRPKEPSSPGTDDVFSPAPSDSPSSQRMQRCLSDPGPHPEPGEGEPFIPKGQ

With CC(C)[C@@H](CC[C@@H](C)[C@H]1CC[C@H]2[C@@H]3[C@H](O)C[C@H]4C[C@@H](NCCCNCCCCN)CC[C@]4(C)[C@H]3CC[C@]12C)OS(=O)(=O)O [Squalamine, squalamine] the “effect on rabbit NHE1” value [1] was “not affected”, the “effect on rabbit NHE2” value [2] was “not affected” and the “effect on activity of NHE3 lacking the 76 C-terminal amino acids” value [3] was “virtually no effect”. For the same compound, the inhibition at 10 µg/mL ([4]; 10 μg/ml) was 38%, the inhibition at 20 µg/mL ([4]; 20 μg/ml) was 57% and the inhibition at 30 µg/mL ([4]; 30 μg/ml) was 83%. For the same compound, the “cell proliferation by endothelial cells not treated with VEGF” value [5] was “statistically unaffected”, the “mean number of lung metastases” value [6] was “reduced the number of metastases” and the “Percent of Control [3H]-Thymidine Uptake” value ([7]; 20 ng/mL VEGF and/or 20 μg/mL squalamine, 24 hours, media containing serum) was 75%. The “effect on cell growth alone” value ([7]; media containing serum, 20 ng/mL VEGF or 20 μg/mL squalamine) was “minimal effects on cell growth”, the “growth of LNCaP cells, squalamine by itself” value ([7]; no exogenous VEGF) was “nominal effect” and the LNCaP proliferation ([7]; with addition of exogenous VEGF) was “inhibited”. For the same compound, the “growth of C4-2 cells, squalamine by itself” value ([8]; no exogenous VEGF) was “nominal effect”, the C4-2 proliferation ([8]; with addition of exogenous VEGF, to a greater extent than LNCaP) was “inhibited” and the “NHE1 activity in unstimulated melanoma cells” value [9] was “substantially down regulates the activity of the antiporter”. The “effect on human NHE1 antiporter (pH change rate)” value [10] was “no effective difference in the pH change rate”.
